# Assay results reported in patent US20040131701A1, “Method to treat infectious diseases and/or to enhance antimicrobial efficacy of drugs” (Virocell Inc., priority 2000, published 2004).
# Legend:
# Sup-T1 cells = format: cell-based, human
# Experimental: Sup-T1 cells were seeded at a density of 10^5 cells per well (100 μl) in 96-well flat-bottom, plates. Cells were either left untreated (control) or were pretreated for 5 min at 37° C. with the two different bpV molecules (bpV [pic] and bpV[phen]) at the indicated concentrations in a final volume of 200 μl. Next, both untreated and bpV-treated Sup-T1 cells were inoculated with the fully infectious T-tropic strain HIV-1NL4-3 (10 ng of p24). Culture medium was replaced twice a week and was supplemented with the appropriate final concentration of bpV molecules. Cells were incubated for 10 days and kinetics of viral infection was assessed by measuring in cell-free culture supernatants the major core viral p24 protein with the use of a commercial enzymatic assay (Organon Teknika). Putative toxicity of bpV molecules was assessed by adding the tetrazolium salt MTT to Sup-T1 cells that were cultured for 10 days under the constant pressure of the indicated concentrations of bpV[pic] and bpV[phen] molecules.
# [1] = tested on: Human peripheral blood mononuclear cells; assay: HPLC analysis of phosphorylated forms of 3TC in PBMC's; format: cell-based; conditions: 10 μM bpV[pic], 3TC at 5, 10 and 20 μM
# Experimental: Analysis of the cellular content in 3TC and its phosphorylated metabolites was performed by HPLC as follows. In preparations for HPLC analysis, 1 ml of a mixture of acetonitrile/water (5/95, vol/vol) and 0.5 ml water were added to each sample. The samples were vortexed and centrifuged at 1000×g for 10 min at room temperature to remove the precipitated material. The supernatants were collected and used without further treatment for HPLC analysis. Two (2) ml of each sample (total volume of ˜2.5 ml) were injected onto a Beckman Ultrasphere ODS column (4.6 mm×150 mm) protected with a Guard-Pak C18 (Waters Millipore) pre-column. 3TC and its metabolites were eluted using a linear gradient from 100% solvent A to 100% solvent B in 25 minutes at a flow rate of 1.2 ml/minute (Solvent A: 5% acetonitrile, 70% water, 25% buffer [40 mM H3PO4, 8 mM tetrabutylammonium hydroxide, adjusted to pH 6.75 with concentrated ammonium hydroxide]; Solvent B: 40% acetonitrile, 35% water, 25% buffer). The elution of metabolites was monitored by counting radioactivity using a Flow Scintillation Analyser 500TR Series (Packard); the HPLC column effluent (1.2 ml/min) was mixed with a liquid scintillation cocktail (3 ml/min) (Ultima Flow M, Packard).
# Human peripheral blood mononuclear cells (PBMC's) were obtained from healthy donors subjected to lymphopheresis for 60 min. The yield of PBMC's ranged from 1.8 to 2.6 billion cells per donor. Twenty-five (25) ml fractions of the cell suspensions (obtained by lymphopheresis) were layered on cushions (15 ml) of Lymphocyte Separation Medium (Wisent) in 50 ml tubes, which were then centrifuged at room temperature at 750×g during 25 min. The purified PBMC's were collected (on top of the Ficoll cushions) and washed 3 times in HBSS (without calcium and magnesium) (500×g, 7 min. at room temperature). The cells were resuspended in RPMI containing 5% FBS at the cell concentration of 25×10^6 per ml. Incubations were carried out using 1 ml of PBMC's suspension per tube. […]
substance,measurement,setting,value
K2[VO(O2)2pic].H2O [bpV[pic]],toxicity (MTT),Sup-T1 cells,no toxic effect
same,formation of 3TC diphosphate,[1],decreased
same,formation of 3TC triphosphate,[1],increased
same,ratio of 3TC triphosphate over 3TC diphosphate,[1],consistently increases
